The source of these data is ChEMBL document CHEMBL4819157, “Synthesis and biological evaluation of novel ligustrazine-chalcone derivatives as potential anti-triple negative breast cancer agents” (Bioorg Med Chem Lett, 2021).

Activity calls are given as the source filed them. The calls are words filed in the database; no cut-off is given here.

For data set [1], the system named is MCF7. In words: Antiproliferation activity against human MCF-7 cells assessed as reduction in cell viability after 72 hrs by CCK8 assay. The class given is functional, cell-based. Particulars: MCF7, 72 h.
For data set [2], the system named is HepG2. The experiment in a line: Antiproliferation activity against human HepG2 cells assessed as reduction in cell viability after 72 hrs by CCK8 assay. The class given is functional, cell-based. Particulars: HepG2, 72 h. (Tetrazolium assays rely on reduction of a dye to a coloured formazan, in cell work by metabolically active cells.)
Data set [3] concerns A549. The experiment in a line: Antiproliferation activity against human A549 cells assessed as reduction in cell viability after 72 hrs by CCK8 assay. Particulars: A549, 72 h. The class given is functional, cell-based.
The subject of data set [4] is MDA-MB-231. The experiment in a line: Antiproliferation activity against human MDA-MB-231 cells assessed as reduction in cell viability after 72 hrs by CCK8 assay. It counts as functional, cell-based. Particulars: MDA-MB-231, 72 h.
The test system of data set [5] is MDA-MB-231. In words: Inhibition of colony formation in human MDA-MB-231 cells at 0.25 to 2 times of IC50 concentration incubated for 48 hrs by plate colony counting assay. The class given is functional, cell-based.
For data set [6], the system named is HUVEC. The experiment in a line: Cytotoxicity against human HUVEC cells assessed as reduction in cell viability after 72 hrs by CCK8 assay. It counts as cell-based.
Data set [7] concerns MDA-MB-231. The experiment in a line: Induction of apoptosis in human MDA-MB-231 cells assessed as viable cells at IC50 by Annexin V-FITC/PI double staining based flow cytometry analysis (reference value: 93.34%). The class given is functional.
In data set [8] the test system is MDA-MB-231. The experiment in a line: Induction of apoptosis in human MDA-MB-231 cells assessed as necrotic cells at IC50 by Annexin V-FITC/PI double staining based flow cytometry analysis (reference value: 0.02%). The class given is functional. In general terms: A flow cytometer gives signals particle by particle.
The subject of data set [9] is MCF7. The experiment in a line: Inhibition of colony formation in human MCF-7 cells at IC50 concentration upto 72 hrs by plate colony counting assay. The class given is functional, cell-based. Particulars: time hrs <=72, TDE = time-dependent effect.
Data set [10] can be described thus: Antitumour activity against human MDA-MB-468 cells xenografted in mouse assessed as reduction in Ki67 positive cells at 50 mg/kg, by immunohistochemical analysis (reference value: 76.50 +/- 5.28%). The arrangement: scale not given: the % may be the effect or the level left. The class given is functional, MDA-MB-231. In general terms: A xenograft is tissue or cells of one species grown in another, often human tumour cells in immunodeficient mice.

Data set [11] relates to MCF7. In words: Inhibition of colony formation in human MCF-7 cells at 0.25 to 2 times of IC50 concentration incubated for 48 hrs by plate colony counting assay. It counts as functional, cell-based.
In data set [12] the test system is MDA-MB-231. The experiment in a line: Inhibition of cell migration in human MDA-MB-231 cells 0.5 to 2 times of IC50 incubated up to 48 hrs by scratch wound healing assay. It counts as functional, cell-based. Particulars: time hrs <=48.
Data set [13] has as its system MDA-MB-231. In words: Induction of apoptosis in human MDA-MB-231 cells assessed as late apoptotic cells at 2 times of IC50 by Annexin V-FITC/PI double staining based flow cytometry analysis (reference value: 0.00%). The class given is functional.
Data set [14] is described as follows: Antitumour activity against human MDA-MB-468 cells xenografted in mouse assessed as reduction in Ki67 positive cells at 25 mg/kg, by immunohistochemical analysis (reference value: 76.50 +/- 5.28%). The class given is functional, MDA-MB-231. The arrangement: scale not given: the % may be the effect or the level left.
Data set [15] has as its system MDA-MB-231. In words: Induction of cell cycle arrest in human […] cells assessed as decrease in accumulation of cells at G2/M phase at 0.5 to 2 times of IC50 after 48 hrs by propidium iodide staining-based flow cytometric analysis. It counts as functional.
The test system of data set [16] is MCF7. In words: Inhibition of cell migration in human MCF-7 cells 0.5 to 2 times of IC50 incubated up to 48 hrs by scratch wound healing assay. It counts as functional, cell-based. Particulars: time hrs <=48.
Data set [17] in a line: Antitumour activity against human MDA-MB-468 cells xenografted in mouse assessed as reduction in Ki67 positive cells at 75 mg/kg, by immunohistochemical analysis (reference value: 76.50 +/- 5.28%). The class given is functional, MDA-MB-231. Also noted: scale not given: the % may be the effect or the level left.
Data set [18] has as its system MCF-10A. In words: Cytotoxicity against human MCF-10A cells assessed as reduction in cell viability after 72 hrs by CCK8 assay. The class given is cell-based.
Data set [19] has as its system MDA-MB-231. The experiment in a line: Induction of apoptosis in human MDA-MB-231 cells assessed as viable cells at 2 times of IC50 by Annexin V-FITC/PI double staining based flow cytometry analysis (reference value: 93.34%). It counts as functional.
The subject of data set [20] is MDA-MB-231. In words: Induction of cell cycle arrest in human […] cells assessed as increase in accumulation of cells at G0/G1 phase at 0.5 to 2 times of IC50 after 48 hrs by propidium iodide staining-based flow cytometric analysis. It counts as functional.
The subject of data set [21] is MDA-MB-231. The experiment in a line: Induction of apoptosis in human MDA-MB-231 cells assessed as viable cells at 0.5 times of IC50 by Annexin V-FITC/PI double staining based flow cytometry analysis (reference value: 93.34%). The class given is functional.
In data set [22] the test system is MDA-MB-231. In words: Induction of apoptosis in human MDA-MB-231 cells assessed as early apoptotic cells at 2 times of IC50 by Annexin V-FITC/PI double staining based flow cytometry analysis (reference value: 6.64%). It counts as functional.
A short description of data set [23]: Toxicity in mouse xenografted with human MDA-MB-468 cells assessed as effect on body weight at 25 to 75 mg/kg. The class given is organism-based. Particulars: in vivo, dose 25-75 mg/kg.
For data set [24], the system named is MDA-MB-231. In words: Induction of apoptosis in human MDA-MB-231 cells assessed as early apoptotic cells at IC50 by Annexin V-FITC/PI double staining based flow cytometry analysis (reference value: 6.64%). It counts as functional.
The test system of data set [25] is MDA-MB-231. In words: Induction of apoptosis in human MDA-MB-231 cells assessed as necrotic cells at 2 times of IC50 by Annexin V-FITC/PI double staining based flow cytometry analysis (reference value: 0.02%). It counts as functional.
The test system of data set [26] is MDA-MB-231. In words: Induction of apoptosis in human MDA-MB-231 cells assessed as late apoptotic cells at 0.5 times of IC50 by Annexin V-FITC/PI double staining based flow cytometry analysis (reference value: 0.00%). It counts as functional.
The test system of data set [27] is MDA-MB-231. In words: Induction of apoptosis in human MDA-MB-231 cells assessed as late apoptotic cells at IC50 by Annexin V-FITC/PI double staining based flow cytometry analysis (reference value: 0.00%). The class given is functional.
Data set [28] concerns MDA-MB-231. In words: Induction of cell cycle arrest in human […] cells assessed as decrease in accumulation of cells at S phase at 0.5 to 2 times of IC50 after 48 hrs by propidium iodide staining-based flow cytometric analysis. It counts as functional.
For data set [29], the system named is MDA-MB-231. The experiment in a line: Inhibition of colony formation in human MDA-MB-231 cells at IC50 concentration upto 72 hrs by plate colony counting assay. It counts as functional, cell-based. Particulars: time hrs <=72, TDE = time-dependent effect.
Data set [30] has as its system MDA-MB-231. The experiment in a line: Induction of apoptosis in human MDA-MB-231 cells assessed as early apoptotic cells at 0.5 times of IC50 by Annexin V-FITC/PI double staining based flow cytometry analysis (reference value: 6.64%). It counts as functional.
Data set [31] concerns MDA-MB-231. In words: Induction of apoptosis in human MDA-MB-231 cells assessed as necrotic cells at 0.5 times of IC50 by Annexin V-FITC/PI double staining based flow cytometry analysis (reference value: 0.02%). It counts as functional.

For orientation: IC50 means the concentration that gives 50% inhibition.

Regarding `Cc1nc(C)c(C)nc1C` [LIGUSTRAZINE], the IC50 in data set [1] is 29.9 µM; in data set [2], 38.2 µM; in data set [3], 36.5 µM; in data set [4] it was 20.4 µM.
In the case of `O=c1[nH]cc(F)c(=O)[nH]1` [FLUOROURACIL], the half-inhibitory concentration (IC50) in data set [1] came out at 5.44 µM; in data set [2], 2.98 µM; in data set [3] it was 2.53 µM; in data set [4] it was 5.85 µM.
`O=C(/C=C/c1ccc(O)cc1)c1ccc(O)cc1O` [ISOLIQUIRITIGENIN]: the IC50 in data set [1] came to 17.7 µM; in [2] it was 27.7 µM; in data set [3], 52.6 µM; in data set [4], 10.9 µM.
With `COc1ccc(C(=O)Nc2ccc(C(=O)/C=C/c3nc(C)c(C)nc3C)cc2)cc1`, the inhibition entry in data set [5] is “Dose-Dependent Effect”; in data set [9], “Tde”; in [11], “Dose-Dependent Effect”; in data set [12] it was “Dose-Dependent Effect”; in data set [16], “Dose-Dependent Effect”; in data set [29] it was “Tde”. For the same compound, the IC50 in data set [6] was determined as 29.2 µM; in data set [1], 1.41 µM; in data set [2], 1.19 µM; in [3], 4.15 µM; in data set [18], 59.6 µM; in data set [4], 1.6 µM. Besides, the Activity in data set [7] was 44.51%; in data set [8], 2.89%; in [10] it was 11.29%; in data set [13] it was 15.92%; in data set [14], 19.51%; in [17], 8.95%. Further, the Activity in [19] is reported as 30.97%; in data set [21] it was 72.66%; in data set [22], 50.96%; in data set [23], “Non-Toxic”; in data set [24], 43.98%; in data set [25] it was 2.15%. In addition, the Activity in data set [26] is listed as 0.65%; in data set [27], 8.62%; in data set [30], 25.14%; in data set [31], 1.54%. The outcome in [15], in [20] and in [28] was Active.
Turning to `Cc1nc(C)c(/C=C/C(=O)c2ccc(NC(=O)c3ccc(F)cc3)cc2)nc1C`, the inhibition result is “Dose-Dependent Effect” in [5]; “Tde” in data set [9]; “Dose-Dependent Effect” in data set [11]; “Dose-Dependent Effect” in [12]; “Dose-Dependent Effect” in data set [16]; “Tde” in [29]. Further, the IC50 in data set [6] turned out to be 32.7 µM; in data set [1], 1.54 µM; in [2], 2.25 µM; in data set [3], 4.48 µM; in [18], 42.9 µM; in [4] it was 1.67 µM.
As for `COc1cc(C(=O)Nc2ccc(C(=O)/C=C/c3nc(C)c(C)nc3C)cc2)cc(OC)c1OC`, the IC50 was 2.76 µM in data set [1], 4.86 µM in data set [2], 7.35 µM in data set [3] and 4.74 µM in data set [4].
As to `Cc1nc(C)c(/C=C/C(=O)c2ccc(NC(=O)c3ccccc3)cc2)nc1C`, the IC50 in data set [1] came to 0.99 µM; in data set [2], 1.31 µM; in data set [3], 7.27 µM; in data set [4], 1.84 µM.
On the same counts, the results for `COc1cccc(OC)c1C(=O)Nc1ccc(C(=O)/C=C/c2nc(C)c(C)nc2C)cc1` are 2.47 µM, 3.38 µM, 8.47 µM and 3.85 µM.
On the same counts, the results for `Cc1nc(C)c(/C=C/C(=O)c2ccc(NC(=O)c3ccc(F)cc3F)cc2)nc1C` are 1.61 µM, 2.99 µM, 2.45 µM and 1.77 µM.
In the same order, the values of `COc1ccc(C(=O)Nc2ccc(C(=O)/C=C/c3nc(C)c(C)nc3C)cc2)cc1OC` are 1.66 µM, 2.56 µM, 5.06 µM and 3.36 µM.
For `COc1cc2nccc(Oc3ccc(NC(=O)C4(C(=O)Nc5ccc(F)cc5)CC4)cc3)c2cc1OC` [CABOZANTINIB], the half-inhibitory concentration (IC50) turned out to be 14.3 µM in data set [1], 15.6 µM in data set [2], 15.2 µM in data set [3] and 19.7 µM in data set [4].
Consider `Cc1nc(C)c(/C=C/C(=O)c2ccc(NC(=O)c3ccccc3F)cc2)nc1C`, for which the half-maximal inhibitory concentration (IC50) in data set [1] turned out to be 1.27 µM; in [2], 2.04 µM; in [3], 7.39 µM; in [4], 1.98 µM.
In the same order, the values of `Cc1ccc(C(=O)Nc2ccc(C(=O)/C=C/c3nc(C)c(C)nc3C)cc2)cc1` are 1.18 µM, 5.45 µM, 9.99 µM and 1.78 µM.
For the compound `COc1cc(OC)cc(C(=O)Nc2ccc(C(=O)/C=C/c3nc(C)c(C)nc3C)cc2)c1`, the half-maximal inhibitory concentration (IC50) in [1] was determined as 6.27 µM; in data set [2], 11 µM; in data set [3], 10.2 µM; in [4], 11.6 µM.
